Measured values as given in patent US20240000075A1, “FUNGICIDAL ARYL AMIDINES” (CORTEVA AGRISCIENCE LLC, priority 2020, published 2024).
Read-outs that look alike come from different tables or passages of the source.

Experiments:
Phakopsora pachyrhizi = assay: Asian soybean rust, whole-plant fungicidal activity (PHAKPA); assay type: in vivo; details: read-out: % Disease Control Rating PHAKPA
Method in brief: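 Ten-day-old 'Williams 82' soybean seedlings sprayed to run-off with compound in acetone/water (1:9, 0.011% Tween-20), air-dried, then inoculated; 24 h dark dew room at 100% RH, then growth room. Disease severity scored 0–100% on sprayed leaves; percent control relative to untreated plants.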

Zymoseptoria tritici = assay: Septoria leaf blotch of wheat, whole-plant fungicidal activity (SEPTTR); assay type: in vivo, Zymoseptoria tritici on wheat plants (variety 'Yuma'); details: read-out: % Disease Control Rating SEPTTR
Method in brief: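 Compounds in acetone, diluted with nine volumes of water containing 110 ppm Triton X-100, were sprayed to run-off on 'Yuma' wheat seedlings at full first-leaf emergence. Spore inoculation was 3 days before (3DC, curative) or 1 day after (1DP, protectant) treatment, then 3 days at 100% RH and greenhouse. First-leaf disease severity (0–100%) was scored relative to untreated plants as percent control.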

Puccinia triticina = assay: Wheat brown rust, whole-plant fungicidal activity (PUCCRT); assay type: in vivo, Puccinia triticina on wheat plants (variety 'Yuma'); details: 24 h, 1DP (1 day protectant), read-out: % Disease Control Rating PUCCRT
Method in brief: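 Wheat 'Yuma' seedlings at first-leaf stage sprayed to run-off with compound from acetone stock diluted in nine volumes water containing 110 ppm Triton X-100, then inoculated with Puccinia triticina spores. Held overnight in dark dew room at 100% RH, then greenhouse for disease development.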

Rhynchosporium commune = assay: Leaf blotch of barley, whole-plant fungicidal activity (RHYNSE); assay type: in vivo; details: 24 h, 1DP (1 day protectant), read-out: % Disease Control Rating RHYNSE
Method in brief: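 Barley cv. 'Harrington' at full first-leaf emergence (7-10 seedlings per pot) was sprayed to run-off with compound in acetone plus nine volumes of water containing 110 ppm Triton X-100, air-dried, then inoculated with spore suspension. Plants spent two days in a dark dew room at 100% RH, then moved to greenhouse for disease development.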

| Compound | melting point [°C] | pest or weed control at 200 ppm (Phakopsora pachyrhizi; 24 h, 1DP (1 day protectant)) [%] | pest or weed control at 200 ppm (Phakopsora pachyrhizi; 72 h, 3DC (3 day curative)) [%] | pest or weed control at 200 ppm (Zymoseptoria tritici; 24 h, 1DP (1 day protectant)) [%] | pest or weed control at 200 ppm (Zymoseptoria tritici; 72 h, 3DC (3 day curative)) [%] | pest or weed control at 200 ppm (Puccinia triticina) [%] | pest or weed control at 200 ppm (Rhynchosporium commune) [%] |
| --- | --- | --- | --- | --- | --- | --- | --- |
| CCN(C)/C=N/c1ccc(C(=O)Cc2cccc(C(F)(F)F)c2)c(C)c1C [Compound 10] | 53 to 57 | > 85 | > 85 | < 20 | < 20 | < 20 | 20 to 50 |
| CCN(C)/C=N/c1ccc(C(=O)CC2CCCCC2)c(C)c1C [Compound 15] | 68 to 72 | > 85 | > 85 | < 20 | < 20 | < 20 | 50 to 85 |
| CCN(C)/C=N/c1ccc(C(=O)CCCC(F)(F)F)c(C)c1C [Compound 14] | 49 to 52 | > 85 | > 85 | < 20 | < 20 | > 85 | < 20 |
| CCN(C)/C=N/c1cc(C)c(C(=O)Cc2ccccc2C)cc1C [Compound 1] | 101 to 105 | > 85 | > 85 | < 20 | 20 to 50 | > 85 | > 85 |
| CCN(C)/C=N/c1ccc(C(=O)CCC(F)(F)F)c(C)c1C [Compound 13] | 52 to 56 | 50 to 85 | > 85 | < 20 | < 20 | < 20 | < 20 |
| CCN(C)/C=N/c1cc(C)c(C(=O)Cc2ccccc2)cc1C [Compound 2] | 43 to 46 | > 85 | > 85 | 20 to 50 | < 20 | > 85 | > 85 |
| CCN(C)/C=N/c1cc(C)c(C(=O)Cc2ccc(OC(F)(F)F)cc2)cc1C [Compound 8] | 70 to 74 | > 85 | > 85 | 50 to 85 | 20 to 50 | > 85 | > 85 |
| CCN(C)/C=N/c1cc(C)c(C(=O)Cc2ccc(C)cc2F)cc1C [Compound 7] | 102 to 105 | > 85 | > 85 | 20 to 50 | < 20 | > 85 | > 85 |
| CCN(C)/C=N/c1cc(C)c(C(=O)Cc2ccc(SC(F)(F)F)cc2)cc1C [Compound 65] | – | > 85 | > 85 | > 85 | 20 to 50 | > 85 | > 85 |
| Cc1cc(C(=O)CC2CCCCC2)c(C)cc1/N=C/N(C)C(C)C [Compound 59] | – | > 85 | > 85 | > 85 | > 85 | > 85 | > 85 |
| CCN(C)/C=N/c1ccc(C(=O)Cc2ccccc2)c(C)c1C [Compound 16] | – | 50 to 85 | > 85 | < 20 | < 20 | < 20 | < 20 |
| C=CCN(C)/C(S)=N/c1cc(C)c(C(=O)CC2CCCCC2)cc1C [Compound 45] | – | 20 to 50 | 50 to 85 | < 20 | < 20 | > 85 | < 20 |
| CCN(C)/C=N/c1cc(C)c(C(=O)Cc2ccc(F)cc2F)cc1C [Compound 20] | – | > 85 | > 85 | < 20 | < 20 | > 85 | > 85 |
| Cc1cc(C(=O)CC2CCCC2)c(C)cc1/N=C/N(C)C [Compound 73, (E)-N′-(4-(2-cyclopentylacetyl)-2,5-dimethylphenyl)-N,N-dimethylformimidamide] | – | > 85 | > 85 | < 20 | < 20 | > 85 | < 20 |
| CCN(C)/C=N/c1cc(C)c(C(=O)Cc2ccc(Cl)cc2)cc1C [Compound 69] | – | > 85 | > 85 | 50 to 85 | 50 to 85 | > 85 | 50 to 85 |
| CCN(C)/C=N/c1cc(C)c(C(=O)C2CCCCC2)cc1C [Compound 26] | – | > 85 | > 85 | > 85 | 20 to 50 | > 85 | > 85 |
| CCN(C)/C=N/c1cc(C)c(C(=O)CCC(F)(F)F)cc1C [Compound 19] | – | > 85 | > 85 | < 20 | 20 to 50 | > 85 | 20 to 50 |
| CCN(C)/C=N/c1cc(OC)c(C(=O)CC2CCCCC2)cc1C [Compound 72] | – | > 85 | > 85 | < 20 | < 20 | > 85 | < 20 |
